From US20240317732A1, “A NEW MOLECULAR SCAFFOLD FOR TARGETING HRPN13” (THE UNITED STATES OF AMERICA AS REPRESENTED BY THE …, priority 2021, published 2024)

Key:
[1] = tested on: RPMI 8226 cells; experiment: MTT cell metabolism / cell viability assay in RPMI 8226; assay type: cell-based; settings: RPMI 8226, 48 hours, up to 40 μM
Experimental: Since previous hRpn13-targeting molecules induce apoptosis in multiple myeloma and colon cancer cells we tested whether XL5 restricts the RPMI 8226 multiple myeloma and HCT116 colon cancer cell lines by measuring metabolism with an MTT (3-(4,5-dimethylthiazol-2-yl)-2,5-diphenyltetrazolium bromide) assay. Experiments were also conducted in parallel with a HCT116 colon cancer cell line in which the exon encoding hRpn13 C88 is deleted, named trRpn13; this cell line expresses a truncated hRpn13 protein with a defective Pru and inability to bind the proteasome28. RPMI 8226 and WT (wild-type) or trRpn13 HCT116 cells seeded at 8,000 and 4,000 cells per well were treated with varying concentrations of XL5 extending to 40 μM and compared to cells incubated with equivalent amounts of DMSO vehicle control.
HCT116 WT or trRpn13 cells were seeded at 4,000 cells/well whereas RPMI 8226 cells were seeded at 8,000 cells/well with RPMI 1640 medium (no phenol red, Thermo Fisher Scientific 11835030) containing 2% fetal bovine serum in 96-well plates. Cells were treated with 0.4% DMSO (as a control) and this concentration was maintained with XL5, XL5-PROTACs XL5-VHL, XL5-VHL-2, XL5-CRBN, or XL5-IAP, and E3 ligands VHL-Ac, thalidomide (Selleckchem, catalog NO. S1193), or IAP-Bz at 10 μM, 20 μM, 30 μM or 40 μM concentration. After 48 hours, 0.35 mg/mL MTT was added for 4 hours of incubation. Stop solution (40% DMF, 10% SDS (W/V), 25 mM HCl, 2.5% acetic acid in H2O) was added to the cells and incubated overnight. Absorbance at 570 nm was measured by using CLARIOstar (BMG LABTECH).

[2] = Reactivity in mouse serum by LC-MS; assay type: in vitro ADME; settings: 0.2 μM, room temperature, 24-hour time period
Experimental: To test for covalent interaction, an hRpn13 Pru sample was incubated with 10-fold molar excess XL5 or DMSO (as a vehicle control) and subjected to liquid chromatography-mass spectrometry (LC-MS). […] To test for general reactivity of XL5 towards exposed cysteines, 40 μM XL5 was incubated at 4° C. for two hours with 2 mM reduced L-glutathione serving as representative of a non-specific interactor with exposed cysteines. XL5-ligated glutathione was detected at only 2% abundance (FIG. 2B). Under identical conditions, 40 μM RA190 reacted with 2 mM reduced L-glutathione to yield products with one or two molecules ligated at 14% or 30% abundance, respectively. We also tested XL5 reactivity by incubating it at 0.2 μM with mouse serum (BioIVT) and monitoring the effect by LC-MS over a 24-hour time period to find only 6% reduction in the unligated compound.
To check for reactivity of XL5 in mouse serum, 0.2 μM XL5 was mixed with mouse serum (BioIVT) and aliquots of the spiked mixture left at room temperature for 0, 4, 8 and 24 hours. For each time point, six samples were extracted using 75% acetonitrile and 0.075% formic acid. The supernatant was transferred to polypropylene injection vials for LC-MS analysis. […]

[3] = target: T1, hRpn13 Pru (Homo sapiens (Human), UniProt Q16186); experiment: Differential scanning fluorimetry, tryptophan quenching at 350 nm; assay type: binding; settings: 1 μM hRpn13 Pru, 20° C.
Excerpt: We conducted in silico docking screens of commercial libraries containing in total 63 million compounds by using the hRpn13 Pru:hRpn2 structure and hRpn2-binding site of hRpn13 as a binding pocket. Twenty-two potential lead compounds were selected for validation by biophysical assays. hRpn13 W108 is partially exposed when free but buried by hRpn2, enabling tryptophan quenching by differential scanning fluorimetry (DSF at λ350) for assaying binding and this approach was used to screen for compound binding to this site. 20 μM compound (separately for twenty compounds) was incubated with 1 μM hRpn13 Pru and fluorescence emission at 350 nm measured. […] The compounds were separately added at 10-fold molar excess to 20 μM ^15N-labeled hRpn13 Pru and binding assessed at 25° C. by 2D NMR for samples dissolved in NMR buffer (20 mM sodium phosphate, 50 mM NaCl, 2 mM DTT, 10% DMSO-d6 (deuterated DMSO), pH 6.5). […] XL5 addition caused hRpn13 signals to shift from free state positions to an observable bound state whereas spectral changes were not induced by the other compounds tested. […]
DSF experiments were performed on a PrometheusNT.48 instrument (NanoTemper Technologies, Germany) at 20° C. […] Each sample was loaded into three high sensitivity capillaries (NanoTemper, cat #PR-C006) and the emission of intrinsic tryptophan fluorescence at 350 nm was monitored.

[4] = target: T1, hRpn13 Pru; experiment: Isothermal titration calorimetry (ITC) of hRpn13 Pru binding; settings: 25° C.
Experimental: ITC experiments were performed at 25° C. on a MicroCal iTC200 system (Malvern, PA, USA). hRpn13 Pru, XL5, XL5 derivative, or RA190 were prepared in buffer C. One aliquot of 0.5 μL followed by 17 or 18 aliquots of 2.1 μL of 200 μM hRpn13 Pru was injected at 750 r.p.m. into a calorimeter cell (volume […]) that contained 20 μM XL5, XL5 derivative, or RA190. Blank experiments were performed by replacing XL5, XL5 derivative, or RA190 with buffer in the cell and the resulting data subtracted from the experimental data during analyses. The integrated interaction heat values were normalized as a function of protein concentration and the data were fit with MicroCal Origin 7.0-based software implementing the “One Set of Sites” model to yield binding affinity Ka (1/Kd), stoichiometry, and other thermodynamic parameters. Dissociation constants (Kd) as determined by ITC as well as relative binding affinities of selected compounds are presented n Table 1, while additional information on named compounds including structures, synthesis, and characterization is presented in Examples 3-9: […]

[5] = target: T1, hRpn13 Pru; experiment: 2D NMR (1H,15N HSQC) binding to 15N-labeled hRpn13 Pru; settings: assessed by ITC and NMR
Excerpt: We conducted in silico docking screens of commercial libraries containing in total 63 million compounds by using the hRpn13 Pru:hRpn2 structure and hRpn2-binding site of hRpn13 as a binding pocket. Twenty-two potential lead compounds were selected for validation by biophysical assays. hRpn13 W108 is partially exposed when free but buried by hRpn2, enabling tryptophan quenching by differential scanning fluorimetry (DSF at λ350) for assaying binding and this approach was used to screen for compound binding to this site. 20 μM compound (separately for twenty compounds) was incubated with 1 μM hRpn13 Pru and fluorescence emission at 350 nm measured. […] The compounds were separately added at 10-fold molar excess to 20 μM ^15N-labeled hRpn13 Pru and binding assessed at 25° C. by 2D NMR for samples dissolved in NMR buffer (20 mM sodium phosphate, 50 mM NaCl, 2 mM DTT, 10% DMSO-d6 (deuterated DMSO), pH 6.5). […]
For screening by ^1H, ^15N HSQC experiments, small molecule dissolved in DMSO-d6 was added to 20 μM or 250 μM ^15N-labeled hRpn13 Pru at a molar excess of 2-fold (for XL5) or 10-fold (for all compounds tested) in NMR buffer (20 mM sodium phosphate, 50 mM NaCl, 2 mM DTT, 10% DMSO-d6, pH 6.5). […] Three ^13C-half-filtered NOESY experiments were recorded with a 100 ms mixing time on asymmetrically labeled samples dissolved in NMR buffer. […]

[6] = tested on: hRpn13 / hRpn13-Pru; experiment: Immunoblot of hRpn13 species in RPMI 8226 cell lysates; assay type: cell-based, human; settings: RPMI 8226 WT, 100 nM, 24 hours
Experimental: HCT116 WT, HCT116 trRpn13, RPMI 8226 or 293T cells were collected and washed with PBS followed by lysing in 1% Triton-TBS lysis buffer (50 mM Tris-HCl, pH 7.5, 150 mM NaCl, 1 mM PMSF) supplemented with protease inhibitor cocktail (Roche). Total protein concentration was determined by bicinchoninic acid (Pierce). Protein lysates were prepared in 1χ LDS (ThermoFisher, NP0007) buffer with 100 mM DTT and heating at 70° C. for 10 min, loaded onto 4-12% Bis-Tris polyacrylamide gels (Life Technologies), subjected to SDS-PAGE and transferred to Invitrolon polyvinylidene difluoride membranes (Life Technologies). The membranes were blocked in Tris-buffered saline with 0.1% Tween-20 (TBST) supplemented with 5% skim milk, incubated with primary antibody, washed in TBST, incubated with secondary antibody and washed extensively in TBST. Pierce™ ECL Western Blotting Substrate (32106; Thermo Fisher Scientific) or Amersham™ ECL™ Primer Western Blotting Detection Reagent (cytiva) was used for antibody signal detection.
To test whether the XL5-PROTACs cause ubiquitination and degradation of hRpn13, lysates from RPMI 8226 (FIG. 5C) cells treated with 40 μM XL5 orXL5-PROTAC compared to DMSO vehicle control were immunoprobed for hRpn13 and β-actin (loading control).

T1 sequence (Q16186 1-150): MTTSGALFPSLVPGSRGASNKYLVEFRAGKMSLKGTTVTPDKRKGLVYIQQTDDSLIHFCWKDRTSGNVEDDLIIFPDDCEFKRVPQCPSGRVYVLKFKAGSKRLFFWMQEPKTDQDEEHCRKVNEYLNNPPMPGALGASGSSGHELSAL

CC(=O)N[C@H](C(=O)N1C[C@H](O)C[C@H]1C(=O)N[C@@H](C)c1ccc(-c2scnc2C)cc1)C(C)(C)C [VHL-Ac, reference compound]
metabolic activity / cell viability (MTT) [1]: did not affect metabolic activity

Cc1ccc(C(=O)Nc2cccc(/C=C(\C#N)C(=O)Nc3ccccc3C(=O)O)c2)cc1 [XL5]
reduction in the unligated compound in mouse serum [2]: 6%

Cl.N[C@@H](Cc1ccccc1)C(=O)N1C/C(=C/c2ccc(Cl)c(Cl)c2)C(=O)/C(=C\c2ccc(Cl)c(Cl)c2)C1 [RA190, reference compound]
tryptophan fluorescence emission quenching at 350 nm [3]: titration-dependent reduction in λ350 signal | binding detected by ITC [4]: did not detect binding

CNc1ccc(C(=O)Nc2cccc(/C=C(\C#N)C(=O)Nc3ccccc3C(=O)O)c2)cc1 [XL24]
change of affinity for hRpn13 Pru relative to XL5 [5]: little effect | Kd ([4]; 200 μM hRpn13 Pru into 20 μM compound, buffer C): 1740 ± 350 nM

CC(C)C[C@H](NC(=O)[C@H](CCc1ccccc1)NC(=O)CN1CCOCC1)C(=O)N[C@@H](Cc1ccccc1)C(=O)N[C@@H](CC(C)C)C(=O)[C@@]1(C)CO1 [carfilzomib, reference compound]
hRpn13-Pru level after proteasome inhibitor [6]: reduced levels of hRpn13-Pru

O=C1CCC(N2C(=O)c3ccccc3C2=O)C(=O)N1 (centres unmarked) [thalidomide, reference compound]
metabolic activity / cell viability (MTT) [1]: did not affect metabolic activity
